pIC50: −log10 of the molar value. The source made the active and inactive calls. The rule behind the calls is not given here.
Key:
Monoglyceride lipase = target: T1, Monoglyceride lipase (Homo sapiens, UniProt Q99685); assay: Inhibition of human recombinant MAGL overexpressed in HEK cells using 2-AG as substrate preincubated for 10 mins before substrate addition measured after 10 mins by HPLC analysis; format: cell-based, HEK293
T1 sequence (Q99685 whole entry): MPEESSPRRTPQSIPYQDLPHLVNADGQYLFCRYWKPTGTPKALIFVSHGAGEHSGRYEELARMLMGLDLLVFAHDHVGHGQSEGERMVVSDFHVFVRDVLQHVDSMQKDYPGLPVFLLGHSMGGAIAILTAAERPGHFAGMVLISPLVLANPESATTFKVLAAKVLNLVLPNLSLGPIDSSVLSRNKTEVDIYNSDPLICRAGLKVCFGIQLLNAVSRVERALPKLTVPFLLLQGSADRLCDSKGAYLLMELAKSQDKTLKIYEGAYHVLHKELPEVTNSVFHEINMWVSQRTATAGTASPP

[1] = target: T2, Prostaglandin G/H synthase 2 (Homo sapiens) (UniProt P35354); assay: Inhibition of human recombinant COX-2 assessed as inhibition of 2-AG cyclooxygenation at 30 uM measured within 10 to 50 secs relative to control
T2 sequence (whole entry): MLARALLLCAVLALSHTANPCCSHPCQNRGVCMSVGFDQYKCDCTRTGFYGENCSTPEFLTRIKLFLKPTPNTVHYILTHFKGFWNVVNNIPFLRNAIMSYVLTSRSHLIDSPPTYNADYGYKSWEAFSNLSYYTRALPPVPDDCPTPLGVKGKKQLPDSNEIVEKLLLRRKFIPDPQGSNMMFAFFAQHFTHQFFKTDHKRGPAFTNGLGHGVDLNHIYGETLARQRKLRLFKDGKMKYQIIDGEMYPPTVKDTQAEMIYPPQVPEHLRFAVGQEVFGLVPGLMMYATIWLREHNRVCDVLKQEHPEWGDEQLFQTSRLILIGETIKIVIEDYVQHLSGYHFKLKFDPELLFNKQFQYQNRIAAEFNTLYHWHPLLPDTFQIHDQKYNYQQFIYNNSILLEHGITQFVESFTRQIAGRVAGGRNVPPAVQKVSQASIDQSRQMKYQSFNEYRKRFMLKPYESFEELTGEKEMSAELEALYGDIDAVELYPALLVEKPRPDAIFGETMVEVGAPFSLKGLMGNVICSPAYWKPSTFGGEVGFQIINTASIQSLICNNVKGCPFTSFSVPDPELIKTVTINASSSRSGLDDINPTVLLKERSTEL

[2] = target: T2, Prostaglandin G/H synthase 2 (Homo sapiens); assay: Inhibition of human recombinant COX-2 assessed as inhibition of arachidonic acid cyclooxygenation at 100 uM measured within 10 to 50 secs relative to control
[3] = target: T3, Fatty-acid amide hydrolase 1 (Homo sapiens, UniProt O00519); assay: Inhibition of human recombinant FAAH overexpressed in African green monkey COS7 cells using [3H]-anandamide as substrate preincubated for 10 mins before substrate addition measured after 10 mins by liquid scintillation counting analysis; format: cell-based, COS-7; conditions: for pIC50: read-out: IC50; for IC50: read-out: pIC50 (converted)
T3 sequence (O00519 whole entry): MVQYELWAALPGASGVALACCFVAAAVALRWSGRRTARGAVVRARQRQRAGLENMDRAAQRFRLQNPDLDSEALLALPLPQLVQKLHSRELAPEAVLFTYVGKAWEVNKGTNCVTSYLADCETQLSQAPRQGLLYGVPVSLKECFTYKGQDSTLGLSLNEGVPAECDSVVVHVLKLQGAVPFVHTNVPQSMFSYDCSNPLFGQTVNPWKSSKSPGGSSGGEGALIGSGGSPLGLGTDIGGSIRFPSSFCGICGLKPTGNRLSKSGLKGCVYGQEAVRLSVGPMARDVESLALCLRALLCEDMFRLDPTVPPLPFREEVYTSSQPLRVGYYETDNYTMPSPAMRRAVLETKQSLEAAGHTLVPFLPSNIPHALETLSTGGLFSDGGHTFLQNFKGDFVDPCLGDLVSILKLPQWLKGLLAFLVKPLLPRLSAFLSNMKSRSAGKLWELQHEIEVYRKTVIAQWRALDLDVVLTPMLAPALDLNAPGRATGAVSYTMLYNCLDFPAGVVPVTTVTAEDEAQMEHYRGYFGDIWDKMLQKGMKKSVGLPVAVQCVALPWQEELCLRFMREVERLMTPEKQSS

[4] = target: T2, Prostaglandin G/H synthase 2 (Homo sapiens); assay: Inhibition of human recombinant COX-2 assessed as inhibition of 2-AG cyclooxygenation at 10 uM measured within 10 to 50 secs relative to control
[5] = target: T4, Prostaglandin G/H synthase 1 (Ovis aries) (UniProt P05979); assay: Inhibition of ovine COX-1 using arachidonic acid as substrate assessed as oxygen consumption at 100 uM measured within 10 to 50 secs
T4 sequence (whole entry): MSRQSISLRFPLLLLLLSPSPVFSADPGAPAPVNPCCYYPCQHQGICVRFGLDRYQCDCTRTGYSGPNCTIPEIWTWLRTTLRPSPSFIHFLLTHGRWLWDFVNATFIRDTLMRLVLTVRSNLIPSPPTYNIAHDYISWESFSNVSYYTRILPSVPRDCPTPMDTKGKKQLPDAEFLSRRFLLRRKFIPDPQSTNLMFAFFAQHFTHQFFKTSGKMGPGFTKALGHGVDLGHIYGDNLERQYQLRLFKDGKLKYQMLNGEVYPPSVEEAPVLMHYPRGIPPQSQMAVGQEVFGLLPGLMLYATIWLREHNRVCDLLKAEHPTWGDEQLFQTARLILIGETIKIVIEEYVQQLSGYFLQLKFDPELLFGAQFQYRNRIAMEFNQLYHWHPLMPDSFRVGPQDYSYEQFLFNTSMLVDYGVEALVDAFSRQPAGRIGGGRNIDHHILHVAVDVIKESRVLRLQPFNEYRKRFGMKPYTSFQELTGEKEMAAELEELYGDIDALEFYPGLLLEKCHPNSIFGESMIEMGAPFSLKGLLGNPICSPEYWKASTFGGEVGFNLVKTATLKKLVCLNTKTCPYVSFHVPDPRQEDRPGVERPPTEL

[6] = target: T4, Prostaglandin G/H synthase 1 (Ovis aries); assay: Inhibition of ovine COX-1 using arachidonic acid as substrate assessed as oxygen consumption at 10 uM measured within 10 to 50 secs
[7] = target: T5, Lysophosphatidylserine lipase ABHD12 (Homo sapiens) (UniProt Q8N2K0); assay: Inhibition of human ABHD12 overexpressed in HEK293 cells assessed as 2-AG hydrolysis at 1 uM by fluorescent glycerol assay; format: cell-based
T5 sequence (whole entry): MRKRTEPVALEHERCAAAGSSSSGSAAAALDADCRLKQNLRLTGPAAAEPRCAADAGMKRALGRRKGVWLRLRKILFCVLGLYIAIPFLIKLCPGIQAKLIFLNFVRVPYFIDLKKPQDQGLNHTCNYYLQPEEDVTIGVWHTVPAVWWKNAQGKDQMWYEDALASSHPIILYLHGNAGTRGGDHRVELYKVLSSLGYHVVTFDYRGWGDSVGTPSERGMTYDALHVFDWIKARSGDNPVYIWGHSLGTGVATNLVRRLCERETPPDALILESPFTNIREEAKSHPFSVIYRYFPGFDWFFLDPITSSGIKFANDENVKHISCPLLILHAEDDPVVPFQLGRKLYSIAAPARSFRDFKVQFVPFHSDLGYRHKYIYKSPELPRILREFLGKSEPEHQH

[8] = target: T2, Prostaglandin G/H synthase 2 (Homo sapiens); assay: Inhibition of human recombinant COX-2 assessed as inhibition of arachidonic acid cyclooxygenation at 30 uM measured within 10 to 50 secs relative to control
[9] = target: T2, Prostaglandin G/H synthase 2 (Homo sapiens); assay: Inhibition of human recombinant COX-2 assessed as inhibition of 2-AG cyclooxygenation at 100 uM measured within 10 to 50 secs relative to control
[10] = target: T4, Prostaglandin G/H synthase 1 (Ovis aries); assay: Inhibition of ovine COX-1 using arachidonic acid as substrate assessed as oxygen consumption at 30 uM measured within 10 to 50 secs
[11] = target: T6, Monoacylglycerol lipase ABHD6 (Homo sapiens) (UniProt Q9BV23); assay: Inhibition of human ABHD6 overexpressed in HEK293 cells assessed as 2-AG hydrolysis at 1 uM by fluorescent glycerol assay; format: cell-based
T6 sequence (whole entry): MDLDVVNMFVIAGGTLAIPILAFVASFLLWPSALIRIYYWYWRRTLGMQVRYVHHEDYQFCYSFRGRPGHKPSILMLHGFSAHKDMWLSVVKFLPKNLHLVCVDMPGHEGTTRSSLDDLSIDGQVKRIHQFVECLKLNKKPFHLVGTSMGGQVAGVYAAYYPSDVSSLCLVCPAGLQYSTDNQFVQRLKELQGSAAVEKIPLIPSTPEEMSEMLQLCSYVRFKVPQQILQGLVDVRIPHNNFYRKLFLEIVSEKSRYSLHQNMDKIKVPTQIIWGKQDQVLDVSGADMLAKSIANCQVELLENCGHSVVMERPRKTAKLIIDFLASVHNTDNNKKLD

[12] = target: T2, Prostaglandin G/H synthase 2 (Homo sapiens); assay: Inhibition of human recombinant COX-2 assessed as inhibition of arachidonic acid cyclooxygenation at 10 uM measured within 10 to 50 secs relative to control
[13] = target: T7, Fatty-acid amide hydrolase 1 (Rattus norvegicus) (UniProt P97612); assay: Inhibition of FAAH in rat RBL2H3 cells assessed as blockade of [3H]-anandamide uptake at 0.1 uM incubated for 15 mins prior to [3H]-anandamide addition measured after 10 mins by scintillation spectroscopic analysis; format: cell-based; conditions: RBL-2H3
T7 sequence (whole entry): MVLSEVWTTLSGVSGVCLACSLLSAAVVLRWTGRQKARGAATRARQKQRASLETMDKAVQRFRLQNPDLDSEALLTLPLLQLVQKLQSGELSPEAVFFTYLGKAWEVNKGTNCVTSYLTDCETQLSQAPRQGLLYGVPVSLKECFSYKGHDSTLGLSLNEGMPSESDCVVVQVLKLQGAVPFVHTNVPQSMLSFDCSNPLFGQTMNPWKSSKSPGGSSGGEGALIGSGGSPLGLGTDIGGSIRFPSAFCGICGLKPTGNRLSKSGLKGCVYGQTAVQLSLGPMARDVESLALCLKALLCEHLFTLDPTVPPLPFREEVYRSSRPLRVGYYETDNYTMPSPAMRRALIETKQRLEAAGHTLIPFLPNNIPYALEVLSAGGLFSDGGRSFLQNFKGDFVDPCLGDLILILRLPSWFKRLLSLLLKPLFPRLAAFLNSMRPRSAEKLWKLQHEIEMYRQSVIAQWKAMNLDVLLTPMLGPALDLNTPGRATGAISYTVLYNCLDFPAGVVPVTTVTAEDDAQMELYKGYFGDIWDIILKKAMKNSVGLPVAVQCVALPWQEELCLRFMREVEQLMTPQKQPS

[14] = target: T8, Fatty-acid amide hydrolase 1 (Homo sapiens) (UniProt O00519); assay: Inhibition of human recombinant FAAH overexpressed in African green monkey COS7 cells using [3H]-anandamide as substrate at 10 to 100 uM preincubated for 10 to 60 mins by liquid scintillation counting analysis; format: cell-based; conditions: COS-7
T8 sequence (whole entry): T3 sequence (O00519 whole entry)

[15] = target: T9, Monoglyceride lipase (Homo sapiens) (UniProt Q99685); assay: Inhibition of human recombinant MAGL overexpressed in HEK cells using 2-AG as substrate at 10 uM preincubated for 10 mins before substrate addition measured after 10 mins by HPLC analysis relative to control; format: cell-based; conditions: HEK293
T9 sequence (whole entry): T1 sequence (Q99685 whole entry)

[16] = target: T8, Fatty-acid amide hydrolase 1 (Homo sapiens); assay: Inhibition of human recombinant FAAH overexpressed in African green monkey COS7 cells using [3H]-anandamide as substrate at 3 to 30 uM preincubated for 10 to 60 mins by liquid scintillation counting analysis; format: cell-based; conditions: COS-7
[17] = target: Cannabinoid receptor 1 (Rattus norvegicus) (UniProt P20272); assay: Antagonist activity at CB1 receptor in rat cerebellar membranes assessed as HU210-evoked response up to 10 uM incubated for 10 mins prior to testing by [35S]GTPgammaS binding assay; format: functional, cell membranes; conditions: Cerebellum, Membrane
[18] = target: Cannabinoid receptor 2 (Homo sapiens) (UniProt P34972); assay: Agonist activity at human CB2 receptor expressed in CHO cell membranes up to 10 uM incubated for 10 mins prior to testing by [35S]GTPgammaS binding assay; format: functional
[19] = target: T8, Fatty-acid amide hydrolase 1 (Homo sapiens); assay: Noncompetitive inhibition of human recombinant FAAH overexpressed in African green monkey COS7 cells using anandamide as substrate assessed as decrease in Vmax of substrate hydrolysis preincubated for 10 mins before substrate addition measured after 10 mins by HPLC analysis; conditions: COS-7
[20] = target: T8, Fatty-acid amide hydrolase 1 (Homo sapiens); assay: Inhibition of human recombinant FAAH overexpressed in African green monkey COS7 cells using [3H]-anandamide as substrate at 10 to 300 uM preincubated for 10 to 60 mins by liquid scintillation counting analysis; format: cell-based; conditions: COS-7
[21] = target: Cannabinoid receptor 1 (Rattus norvegicus) (UniProt P20272); assay: Agonist activity at CB1 receptor in rat cerebellar membranes up to 10 uM incubated for 10 mins prior to testing by [35S]GTPgammaS binding assay; format: functional, cell membranes; conditions: Cerebellum, Membrane
[22] = target: T8, Fatty-acid amide hydrolase 1 (Homo sapiens); assay: Reversible inhibition of human recombinant FAAH overexpressed in African green monkey COS7 cells using […] as substrate assessed as recovery of enzyme activity at 20 x IC50 preincubated for 60 mins followed by 500 fold dilution measured after 10 mins by HPLC analysis; format: cell-based; conditions: COS-7

Cannabinoid receptor 1 (Rattus norvegicus), sequence (P20272 whole entry): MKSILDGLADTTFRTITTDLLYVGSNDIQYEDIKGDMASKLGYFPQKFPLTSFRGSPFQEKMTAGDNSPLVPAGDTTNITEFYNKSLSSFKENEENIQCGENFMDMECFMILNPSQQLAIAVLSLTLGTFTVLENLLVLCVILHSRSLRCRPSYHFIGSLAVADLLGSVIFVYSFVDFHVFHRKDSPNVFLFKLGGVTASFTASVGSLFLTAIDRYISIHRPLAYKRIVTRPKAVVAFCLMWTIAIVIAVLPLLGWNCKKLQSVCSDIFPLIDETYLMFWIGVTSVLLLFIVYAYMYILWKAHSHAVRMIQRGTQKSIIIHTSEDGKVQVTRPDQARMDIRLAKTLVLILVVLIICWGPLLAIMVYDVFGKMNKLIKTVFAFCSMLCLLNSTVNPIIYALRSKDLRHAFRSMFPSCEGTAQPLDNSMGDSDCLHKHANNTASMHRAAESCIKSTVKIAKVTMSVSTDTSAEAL
Cannabinoid receptor 2 (Homo sapiens), sequence (P34972 whole entry): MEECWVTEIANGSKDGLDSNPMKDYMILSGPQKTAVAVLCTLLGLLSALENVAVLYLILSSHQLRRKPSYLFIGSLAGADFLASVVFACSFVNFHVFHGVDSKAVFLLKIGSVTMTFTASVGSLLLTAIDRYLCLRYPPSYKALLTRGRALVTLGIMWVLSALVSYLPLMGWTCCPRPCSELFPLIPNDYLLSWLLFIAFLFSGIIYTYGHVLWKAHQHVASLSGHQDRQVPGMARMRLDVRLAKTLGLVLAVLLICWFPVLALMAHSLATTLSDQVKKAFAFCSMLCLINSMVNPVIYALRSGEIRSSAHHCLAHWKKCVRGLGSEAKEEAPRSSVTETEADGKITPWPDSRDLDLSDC

COc1nn([C@H](C)c2ccc(CC(C)C)cc2)c(=O)o1
pIC50 (Monoglyceride lipase; read-out: IC50): 5.40 | IC50 (Monoglyceride lipase; read-out: pIC50 (converted)): 13500 nM | inhibition [1]: 10% | inhibition [2]: 50% | pIC50 [3]: 6.62 | IC50 [3]: 245 nM | inhibition [4]: 20% | inhibition [5]: 20% | inhibition [6]: inactive | inhibition [7]: inactive | inhibition [8]: 40% | inhibition [9]: 30% | inhibition [10]: 10% | inhibition [11]: inactive | inhibition [12]: 30%

O=C(N1CCC(C(c2ccc3c(c2)OCO3)c2ccc3c(c2)OCO3)CC1)n1cncn1
inhibition [13]: Active

COc1nn([C@@H](C)c2ccc(-c3ccccc3)cc2)c(=O)o1
inhibition [14]: Active | inhibition [15]: 18% | inhibition [16]: Active | pIC50 [3]: 7.64 | IC50 [3]: 23.4 nM | Activity [17]: inactive | Activity [18]: inactive | inhibition [19]: Dose-dependent effect | inhibition [20]: Active | Activity [21]: inactive | inhibition [7]: inactive | inhibition [11]: inactive | inhibition [22]: Active

CC(C(=O)O)c1ccc(-c2ccccc2)c(F)c1 (stereo not given)
inhibition [10]: Active
